We go through 13 compounds from US20260146035A1, “FUSED BICYCLIC COMPOUNDS AND THEIR USE AS MER AND AXL INHIBITORS” (DONG-A ST CO., LTD., priority 2022, published 2026).

SMILES strings stand for the structures.

One experiment has as its target T1, human MER (528-end) (Homo sapiens, UniProt Q12866).
T1 construct: human MER (528-end); purchased Camnabio, Japan
T1 sequence (Q12866 528-999 limits assumed): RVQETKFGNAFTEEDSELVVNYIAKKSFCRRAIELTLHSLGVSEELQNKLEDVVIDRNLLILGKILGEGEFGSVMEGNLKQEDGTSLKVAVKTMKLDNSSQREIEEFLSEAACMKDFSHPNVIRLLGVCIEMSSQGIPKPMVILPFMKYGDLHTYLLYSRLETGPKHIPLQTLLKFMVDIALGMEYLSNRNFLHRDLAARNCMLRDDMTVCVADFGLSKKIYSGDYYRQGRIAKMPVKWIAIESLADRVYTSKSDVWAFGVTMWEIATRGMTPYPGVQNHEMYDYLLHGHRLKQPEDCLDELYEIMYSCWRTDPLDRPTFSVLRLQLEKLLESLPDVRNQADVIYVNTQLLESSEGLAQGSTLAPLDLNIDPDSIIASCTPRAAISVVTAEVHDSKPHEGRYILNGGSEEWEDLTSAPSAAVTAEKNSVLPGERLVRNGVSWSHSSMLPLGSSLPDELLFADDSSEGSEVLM
Put plainly: HTRF kinase activity biochemical assay, MER. As to conditions: 10 μM ATP, 30 minutes pre-incubation; read-out: HTRF MERTK IC50.

The target in another experiment is T2, human AXL (473-end) (Homo sapiens, UniProt P30530).
T2 construct: human AXL (473-end); purchased SignalChem, Canada
T2 sequence (P30530 473-894 limits assumed): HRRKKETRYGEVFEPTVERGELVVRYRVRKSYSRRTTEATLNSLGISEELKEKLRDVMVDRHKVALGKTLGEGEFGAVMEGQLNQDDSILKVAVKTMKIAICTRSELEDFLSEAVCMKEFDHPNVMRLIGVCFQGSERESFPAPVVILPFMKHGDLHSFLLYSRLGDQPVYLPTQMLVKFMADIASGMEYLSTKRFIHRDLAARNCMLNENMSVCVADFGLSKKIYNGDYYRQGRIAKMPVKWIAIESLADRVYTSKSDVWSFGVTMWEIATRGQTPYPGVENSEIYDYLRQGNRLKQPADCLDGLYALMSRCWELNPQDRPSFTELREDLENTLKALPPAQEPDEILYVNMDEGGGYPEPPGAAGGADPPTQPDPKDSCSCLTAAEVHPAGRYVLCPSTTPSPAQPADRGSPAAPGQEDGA
The experiment can be described thus: HTRF kinase activity biochemical assay, AXL. The note with it: 10 μM ATP, 30 minutes pre-incubation. In general terms: Time-resolved FRET reads energy transfer from a long-lived donor to a nearby acceptor.

The target of the next experiment is T3, human TYRO3 (455-end) (Homo sapiens, UniProt Q06418).
T3 construct: TYRO3 (455-end); purchased SignalChem, Canada
T3 sequence (Q06418 455-890 limits assumed): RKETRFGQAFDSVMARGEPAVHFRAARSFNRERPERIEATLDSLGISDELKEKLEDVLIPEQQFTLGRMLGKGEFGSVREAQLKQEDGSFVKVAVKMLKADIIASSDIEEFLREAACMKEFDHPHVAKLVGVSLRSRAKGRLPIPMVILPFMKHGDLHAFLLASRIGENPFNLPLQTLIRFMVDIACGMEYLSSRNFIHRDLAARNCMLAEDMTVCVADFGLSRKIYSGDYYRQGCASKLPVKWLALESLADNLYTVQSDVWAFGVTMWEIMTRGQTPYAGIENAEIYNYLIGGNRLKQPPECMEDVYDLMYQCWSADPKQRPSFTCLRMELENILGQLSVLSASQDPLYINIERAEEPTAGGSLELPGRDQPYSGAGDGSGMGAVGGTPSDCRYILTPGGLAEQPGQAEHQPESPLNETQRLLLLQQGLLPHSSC
The experiment can be described thus: HTRF kinase activity biochemical assay, TYRO3. As to conditions: 10 μM ATP, 30 minutes pre-incubation; read-out: HTRF TYRO IC50.

In the case of `Cn1cc(-c2cnc(N)c(C(=O)N[C@H]3CCC[C@@H]3OCc3ccc(-c4cccc5cc[nH]c45)cc3)c2)cn1` [Example 29, 2-amino-N-[(1S,2S)-2-{[4-(1H-indol-7-yl)phenyl]methoxy}cyclopentyl]-5-(1-methyl-1H-pyrazol-4-yl)pyridine-3-carboxamide], the IC50 at human MER (528-end) was 0.01 to 0.1 µM; at human AXL (473-end), 0.1 to 1 µM; on human TYRO3 (455-end) it was above 1 µM.
For the compound `Cn1ccc(-c2cnc(N)c(C(=O)N[C@H]3CCC[C@@H]3OCc3ccc(-c4ccc5c(c4)C(C)(C)CN5C4CCN(CCO)CC4)cc3)c2)cc1=O` [Example 30, 6-amino-N-{(1S,2S)-2-[(4-{1-[1-(2-hydroxyethyl)piperidin-4-yl]-3,3-dimethyl-2,3-dihydro-1H-indol-5-yl}phenyl)methoxy]cyclopentyl}-1′-methyl-2′-oxo-1′,2′-dihydro[3,4′-bipyridine]-5-carboxamide], the 50% inhibitory concentration (IC50) is below 0.01 µM on human MER (528-end), below 0.01 µM against human AXL (473-end) and 0.01 to 0.1 µM at human TYRO3 (455-end).
`CC1(C)CN(C2CCN(CCO)CC2)c2ccc(-c3ccc(CO[C@H]4CCC[C@@H]4NC(=O)c4cc(-c5ccc(F)nc5)cnc4N)cc3)cc21` [Example 31, 6-amino-6′-fluoro-N-{(1S,2S)-2-[(4-{1-[1-(2-hydroxyethyl)piperidin-4-yl]-3,3-dimethyl-2,3-dihydro-1H-indol-5-yl}phenyl)methoxy]cyclopentyl}[3,3′-bipyridine]-5-carboxamide]: the half-maximal inhibitory concentration (IC50) on human MER (528-end) is below 0.01 µM; on human AXL (473-end), below 0.01 µM; at human TYRO3 (455-end), 0.01 to 0.1 µM.
For the compound `Cn1cc(-c2cnc(N)c(C(=O)N[C@H]3COC[C@@H]3OCc3ccc(-c4ccc5c(c4)C(C)(C)CN5C4CCN(CCO)CC4)cc3)c2)cn1` [Example 32, 2-amino-N-{(3S,4R)-4-[(4-{1-[1-(2-hydroxyethyl)piperidin-4-yl]-3,3-dimethyl-2,3-dihydro-1H-indol-5-yl}phenyl)methoxy]oxolan-3-yl}-5-(1-methyl-1H-pyrazol-4-yl)pyridine-3-carboxamide], the IC50 is below 0.01 µM at human MER (528-end), below 0.01 µM at human AXL (473-end) and 0.01 to 0.1 µM at human TYRO3 (455-end).
In the case of `CC1(C)CN(C2CCN(CCO)CC2)c2ccc(-c3ccc(CO[C@H]4COC[C@@H]4NC(=O)c4cc(-c5ccc(F)nc5)cnc4N)cc3)cc21` [Example 35, 6-amino-6′-fluoro-N-{(3S,4R)-4-[(4-{1-[1-(2-hydroxyethyl)piperidin-4-yl]-3,3-dimethyl-2,3-dihydro-1H-indol-5-yl}phenyl)methoxy]oxolan-3-yl}[3,3′-bipyridine]-5-carboxamide], the IC50 on human MER (528-end) is below 0.01 µM; on human AXL (473-end), 0.01 to 0.1 µM; at human TYRO3 (455-end), 0.1 to 1 µM.
In the same order, the values of `Cn1cc(-c2cnc(N)c(C(=O)N[C@H]3CCC[C@@H]3OCc3ccc(-c4ccc5c(c4)C(C)(C)CN5C4CCN(CCO)CC4)cc3)c2)ccc1=O` [Example 36, 6-amino-N-{(1S,2S)-2-[(4-{1-[1-(2-hydroxyethyl)piperidin-4-yl]-3,3-dimethyl-2,3-dihydro-1H-indol-5-yl}phenyl)methoxy]cyclopentyl}-1′-methyl-6′-oxo-1′,6′-dihydro[3,3′-bipyridine]-5-carboxamide] are below 0.01 µM, below 0.01 µM and 0.01 to 0.1 µM.
As to `CN1C[C@H](NC(=O)c2cc(-c3ccc(F)nc3)cnc2N)[C@@H](OCc2ccc(-c3ccc4c(c3)C(C)(C)CN4C3CCN(CCO)CC3)cc2)C1` [Example 37, 6-amino-6′-fluoro-N-{(3S,4S)-4-[(4-{1-[1-(2-hydroxyethyl)piperidin-4-yl]-3,3-dimethyl-2,3-dihydro-1H-indol-5-yl}phenyl)methoxy]-1-methylpyrrolidin-3-yl}[3,3′-bipyridine]-5-carboxamide], the half-maximal inhibitory concentration (IC50) at human MER (528-end) is below 0.01 µM; against human AXL (473-end) it was 0.01 to 0.1 µM; on human TYRO3 (455-end) it was 0.1 to 1 µM.
In the same order, the values of `CC1(C)CN(C2CCN(CCO)CC2)c2ccc(-c3ccc(CO[C@H]4CCC[C@@H]4NC(=O)c4nc(-c5ccc(F)nc5)cnc4N)cc3)cc21` [Example 41, 3-amino-6-(6-fluoropyridin-3-yl)-N-{(1S,2S)-2-[(4-{1-[1-(2-hydroxyethyl)piperidin-4-yl]-3,3-dimethyl-2,3-dihydro-1H-indol-5-yl}phenyl)methoxy]cyclopentyl}pyrazine-2-carboxamide] are below 0.01 µM, 0.01 to 0.1 µM and 0.1 to 1 µM.
For `Cc1nn(C)cc1-c1cnc(N)c(C(=O)N[C@H]2COC[C@@H]2OCc2ccc(-c3ccc4c(c3)C(C)(C)CN4C3CCN(CCO)CC3)cc2)c1` [Example 42, 2-amino-5-(1,3-dimethyl-1H-pyrazol-4-yl)-N-{(3S,4R)-4-[(4-{1-[1-(2-hydroxyethyl)piperidin-4-yl]-3,3-dimethyl-2,3-dihydro-1H-indol-5-yl}phenyl)methoxy]oxolan-3-yl}pyridine-3-carboxamide] the same measures were below 0.01 µM, below 0.01 µM and 0.01 to 0.1 µM.
For `Cn1cc(-c2cnc(N)c(C(=O)N[C@H]3CCC[C@@H]3OCc3ccc(-c4ccc5c(c4)C4(CCOC4)CN5C4CCN(CCO)CC4)cc3)c2)cn1` (stereo partly drawn) [Example 43, 2-amino-N-{(1S,2S)-2-[(4-{1-[1-(2-hydroxyethyl)piperidin-4-yl]-1,2-dihydrospiro[indole-3,3′-oxolan]-5-yl}phenyl)methoxy]cyclopentyl}-5-(1-methyl-1H-pyrazol-4-yl)pyridine-3-carboxamide] the same measures were below 0.01 µM, 0.1 to 1 µM and 0.1 to 1 µM.
For the compound `CC1(C)CN(C2CCN(CCO)CC2)c2ccc(-c3ccc(CO[C@H]4COC[C@@H]4NC(=O)c4cc(-c5cncc(F)c5)cnc4N)cc3)cc21` [Example 44, 6-amino-5′-fluoro-N-{(3S,4R)-4-[(4-{1-[1-(2-hydroxyethyl)piperidin-4-yl]-3,3-dimethyl-2,3-dihydro-1H-indol-5-yl}phenyl)methoxy]oxolan-3-yl}[3,3′-bipyridine]-5-carboxamide], the values for the IC50 at human MER (528-end), at human AXL (473-end) and on human TYRO3 (455-end) were below 0.01 µM, 0.1 to 1 µM and 0.1 to 1 µM, respectively.
With `Cn1cc(-c2cnc(N)c(C(=O)N[C@H]3COC[C@@H]3OCc3ccc(-c4ccc5c(c4)CC[C@@H]5N4CCN(CCO)CC4)cc3)c2)cn1` [Example 45, 2-amino-N-{(3S,4R)-4-[(4-{(1S)-1-[4-(2-hydroxyethyl)piperazin-1-yl]-2,3-dihydro-1H-inden-5-yl}phenyl)methoxy]oxolan-3-yl}-5-(1-methyl-1H-pyrazol-4-yl)pyridine-3-carboxamide], the figures for the IC50 at human MER (528-end), at human AXL (473-end) and at human TYRO3 (455-end) were below 0.01 µM, below 0.01 µM and 0.1 to 1 µM, respectively.
With `Cc1c(-c2cnc(N)c(C(=O)N[C@H]3COC[C@@H]3OCc3ccc(-c4ccc5c(c4)C(C)(C)CN5C4CCN(CCO)CC4)cc3)c2)cnn1C` [Example 47, 2-amino-5-(1,5-dimethyl-1H-pyrazol-4-yl)-N-{(3S,4R)-4-[(4-{1-[1-(2-hydroxyethyl)piperidin-4-yl]-3,3-dimethyl-2,3-dihydro-1H-indol-5-yl}phenyl)methoxy]oxolan-3-yl}pyridine-3-carboxamide], the values for the IC50 at human MER (528-end), against human AXL (473-end) and on human TYRO3 (455-end) were below 0.01 µM, below 0.01 µM and 0.01 to 0.1 µM, respectively.

The IC50 is the concentration that gives 50% inhibition.
